Experimental data published in PMC13126685, “Targeting Highly Reactive Oxygen Species (hROS) for Prodrug Activation through a Cascade Reaction with Kinetic Tunability (CReKT) to Effect Linker Cleavage” (Journal of Medicinal Chemistry, 2026).
Like-named read-outs stand apart in the source and are kept apart here.

How the values were obtained:
[1] = Cyclization kinetics of model thioethers and sulfoxides by RP-HPLC; assay type: physicochemical; conditions: for half-life at 200 μM: PBS, pH 7.4, 200 μM in PBS/DMSO (98:2); for half-life at 200 μM / cyclization, result in words: 37 °C, pH 7.4; for cyclization, result in words: 200 μM in PBS/DMSO (98:2)
Experimental: The basic premise of this ROS-sensitive prodrug strategy relies on two properties: (1) the substantial rate enhancement of the cyclization/condensation reaction after oxidation and (2) the ability for ROS to oxidize a thioether to sulfoxide rapidly, which we have recently extensively studied. To examine the first aspect, we studied the rate of cyclization of the thioethers (3a–3g) and sulfoxides (4a–4g) using RP-HPLC (Figure and Figures S1–S5). Briefly, 200 μM thioether or sulfoxide was incubated in PBS (containing 2% DMSO) at 37 °C. Aliquots of the reaction solution were sampled at designated time points for examination of the reaction kinetic profiles. As representative examples, the cases of thioether-sulfoxide pairs 3 a /4a (EWG: −CN), 3 e /4e (EWG: −CONH2), and 3 f /4f (EWG: −CONHC3H7) are described (Figure ). […] As a subsequent step, we were interested in the ability to tune the reaction kinetics and the magnitude of the reaction rate separation between the thioether and sulfoxide analogs. We are especially interested in searching for systems that offer a high degree of separation in reaction kinetics before and after thioether oxidation.
First, 10 mM stock solutions of compound 3 or 4 were prepared in DMSO. […] The resultant solution was kept at 37 °C. […] Either gradient method A or B was used to monitor the reaction.

[2] = ROS-triggered drug release from drug conjugates after oxidation by NaOCl (RP-HPLC); conditions: 100 μM conjugate, 150 μM NaOCl, 37 °C, pH 7.4, 20 min
Experimental: Specifically, to study drug release after oxidation by NaOCl, 100 μM of Flox-CReKT 12a was incubated with 150 μM sodium hypochlorite (NaOCl) in PBS (containing 1% DMF) under near-physiological conditions (Figure ). The reaction progress was monitored by RP-HPLC, where 20 μL of the incubated mixture was sampled and analyzed at designated time points (Figure ). Drug release t 1/2 was calculated by plotting the peak area of Flox released against time (Figure a). […] Specifically, oxidation of Flox-CReKT conjugate 12a is designed to lead to sulfoxide analogue 13a, which undergoes cyclization to release the Flox with the formation of the cyclized byproduct (6a) (Figure ).
We used the same protocol as discussed in the previous section of ROS-sensitive drug release to study the effect of pH. […] Furthermore, we used either a citrate- or PBS-based buffer to test the effect of pH on the oxidation step.
To monitor the drug release in the presence of ROS, drug conjugate 12 was incubated with ROS under near-physiological conditions. First, a 10 mM stock solution of the drug conjugate was prepared in DMF. Then, 10 μL was taken from the stock solution and added to 975 μL of the buffer. Then, 15 μL of 10 mM ROS solution was added to the solution. The resultant solution was kept at 37 °C. At different time points, 20 μL was taken from the reaction mixture and injected into HPLC.

[3] = Drug release / stability of drug conjugates in buffer in the absence of ROS (RP-HPLC); assay type: physicochemical; conditions: 100 μM, 37 °C
Experimental: Cellular compartments can have slightly different pH.
To monitor drug release in the absence of ROS, the same procedure of the model compound was followed with a small change of stock solution solvent. For drug conjugates 12, DMF was used to prepare the stock solution. Briefly, a 10 mM stock solution of the drug-conjugated compound was prepared in DMF. […] The resultant solution was kept at 37 °C.

RS4;11 cells = test: Cytotoxicity, CCK-8 assay; assay type: cell-based; conditions: Homo sapiens, RS4-11, 72 h
Experimental: To conduct this set of experiments, a 96-well plate (8 × 12) was used. First, RS4;11 cells were seeded in a 96-well plate 1 day before the experiment (RPMI-1640, containing 10% FBS and 1% PNS). Then, the cells were incubated with different concentrations of compounds with or without the stimulant. Specifically, the final concentrations of compounds were 0.1 pM–100 μM with or without H2O2 (25 μM) stimulation. The plate containing cells were incubated for 72 h at 37 °C with 5% CO2. The cell viability was tested using the CCK-8 assay. Specifically, after 72 h of incubation, 10 μL of the CCK-8 assay reagent was added to each well. Then, the plate was further incubated for 2 h. After that, the plate was gently shaken for 1 min, and then absorbance was recorded at 450 nm. The percentage cell viability was calculated using the following formula: cell viability (%) = ((A 450 of treated wells – A 450 of control wells)/(A 450 of no treatment wells – A 450 of control wells)) × 100. The experiment was conducted in triplicates.

[4] = set-up: method as in number not shown in text; conditions: ref number not shown in text; cited from earlier work
RAW264.7 cells = test: Intracellular ROS detection using DCFH-DA fluorescent probe; assay type: cell-based; conditions: 10 μM DCFH-DA, PMA 2 μM or LPS 2 μg/mL, 4 h, λex 495 nm, λem 530 nm
Text: To correlate the intracellular drug release, we also studied intracellular ROS formation upon stimulation with LPS or PMA or using RAW264.7 cells. We chose one of the widely used fluorescent probes, DCFH-DA, which is the diester version of DCFH capable of cellular penetration. − Subsequent hydrolysis of the ester groups would lead to DCFH, which is not readily cell membrane permeable and thus is trapped intracellularly. […] Similar to the intracellular payload release studies, we used RAW264.7 cells for intracellular ROS determination work. Briefly, 10 μM of DCFH-DA was incubated with and without LPS/PMA. Specifically, three groups were tested with the first being 10 μM of DCFH-DA only, the second being 10 μM of DCFH-DA and 2 μg/mL of LPS, and the third being 10 μM of DCFH-DA and 2 μM of PMA. The cells were incubated for 4 h before fluorescence measurements using a plate reader (λex 495 nm and λem 530 nm). […] Working solutions were prepared by dilution in DMEM (Fluorobright DMEM, containing 1% PNS). DCFH-DA (10 μM) was prepared by adding 4 μL of 10 mM DCFH-DA in 3.996 mL of media. DCFH-DA (10 μM) and LPS (2 μg/mL) were prepared by adding 4 μL of 10 mM DCFH-DA and 4 μL of 2 μg/μL of LPS in 3.994 mL of media. […] Subsequently, the plate was incubated 4 h before fluorescence measurements using a plate reader (λex 495 nm and λem 530 nm). […]

[5] = read-out: t 1/2 (thioether) (3a–g), cyclization (converted)
[6] = read-out: t 1/2 (sulfoxide) (4a–g), cyclization (converted)

Molecule: COC(=O)c1ccccc1SCC#N [3a, Methyl 2-((Cyanomethyl)thio)benzoate]
- half-life at 200 μM [1, 5]: 5 h

Molecule: COC(=O)c1ccccc1SCC(F)(F)F [3b, Methyl 2-((2,2,2-Trifluoroethyl)thio)benzoate]
- cyclization, result in words [1]: did not lead to cyclization
- half-life at 200 μM [1, 5]: > 48 h

Molecule: COC(=O)c1ccccc1SCC(=O)C(C)(C)C [3c, Methyl 2-((3,3-Dimethyl-2-oxobutyl)thio)benzoate]
- half-life at 200 μM [1, 5]: 10 h

Molecule: COC(=O)CSc1ccccc1C(=O)OC [3d, Methyl 2-((2-Methoxy-2-oxoethyl)thio)benzoate]
- half-life at 200 μM [1, 5]: 6 h

Molecule: COC(=O)c1ccccc1SCC(N)=O [3e, Methyl 2-((2-Amino-2-oxoethyl)thio)benzoate]
- half-life at 200 μM [1, 5]: > 48 h

Molecule: CCCNC(=O)CSc1ccccc1C(=O)OC [3f, Methyl 2-((2-Oxo-2-(propylamino)ethyl)thio)benzoate]
- cyclization, result in words [1]: no cyclization
- cyclization after 5 days, result in words ([1]; near-physiological conditions, 5 days): no significant cyclization

Molecule: COC(=O)c1ccccc1SCC(=O)O [3g, 2-((2-(Methoxycarbonyl)phenyl)thio)acetic Acid]
- cyclization, result in words [1]: cyclization did not happen
- half-life at 200 μM [1, 5]: > 48 h

Molecule: COC(=O)c1ccccc1[S+]([O-])CC#N (stereo not drawn) [4a, Methyl 2-((Cyanomethyl)sulfinyl)benzoate]
- half-life at 200 μM [1, 6]: 0.667 h

Molecule: COC(=O)c1ccccc1[S+]([O-])CC(F)(F)F (stereo not drawn) [4b, Methyl 2-((2,2,2-Trifluoroethyl)sulfiny)benzoate]
- cyclization, result in words [1]: did not lead to cyclization
- half-life at 200 μM [1, 6]: > 48 h

Molecule: COC(=O)c1ccccc1[S+]([O-])CC(=O)C(C)(C)C (stereo not drawn) [4c, Methyl 2-((3,3-Dimethyl-2-oxobutyl)sulfinyl)benzoate]
- half-life at 200 μM [1, 6]: 1.5 h

Molecule: COC(=O)C[S+]([O-])c1ccccc1C(=O)OC (stereo not drawn) [4d, Methyl 2-((2-Methoxy-2-oxoethyl)sulfinyl)benzoate]
- half-life at 200 μM [1, 6]: 0.667 h

Molecule: COC(=O)c1ccccc1[S+]([O-])CC(N)=O (stereo not drawn) [4e, Methyl 2-((2-Amino-2-oxoethyl)sulfinyl)benzoate]
- half-life at 200 μM [1, 6]: ~2.17 h

Molecule: CCCNC(=O)C[S+]([O-])c1ccccc1C(=O)OC (stereo not drawn) [4f, Methyl 2-((2-Oxo-2-(propylamino)ethyl)sulfinyl)benzoate]
- half-life at 200 μM [1, 6]: 7.5 h

Molecule: COC(=O)c1ccccc1[S+]([O-])CC(=O)O (stereo not drawn) [4g, 2-((2-(Methoxycarbonyl)phenyl)sulfinyl)acetic Acid]
- cyclization, result in words [1]: cyclization did not happen
- half-life at 200 μM [1, 6]: > 48 h

Molecule: N#CCSc1ccccc1C(=O)OC1CC(n2cc(F)c(=O)[nH]c2=O)OC1CO [12a, (2S,3R,5S)-5-(5-Fluoro-2,4-dioxo-3,4-dihydropyrimidin-1(2H)-yl)-2-(hydroxymethyl)tetrahydrofuran-3-yl 2-((Cyanomethyl)thio)benzoate]
- Flox released at the 20 min time point [2]: 90%

Molecule: CCCNC(=O)CSc1ccccc1C(=O)O[C@H]1C[C@H](n2cc(F)c(=O)[nH]c2=O)O[C@@H]1CO [12f, (2R,3S,5R)-5-(5-Fluoro-2,4-dioxo-3,4-dihydropyrimidin-1(2H)-yl)-2-(hydroxymethyl)tetrahydrofuran-3-yl 2-((2-Oxo-2-(propylamino)ethyl)thio)benzoate]
- stability in the absence of ROS for up to 72 h ([3]; pH 7.4, 72 h): remained intact
- IC50 (RS4;11 cells; + 25 μM H2O2): 0.202 ± 0.003 µM
- IC50 (RS4;11 cells; without H2O2): 0.197 ± 0.003 µM

Molecule: CCc1c2c(nc3ccc(OC(=O)c4ccccc4SCC(N)=O)cc13)-c1cc3c(c(=O)n1C2)COC(=O)[C@]3(O)CC [14e, (S)-4,11-Diethyl-4-hydroxy-3,14-dioxo-3,4,12,14-tetrahydro-1H-pyrano[3′,4’:6,7]indolizino[1,2-b]quinolin-9-yl 2-((2-Amino-2-oxoethyl)thio)benzoate]
- SN-38 released within 24 h without oxidation ([3]; pH 7.4, 24 h): about 25%

Molecule: O=C(O)c1ccccc1C1c2cc(Cl)c(O)cc2Oc2cc(O)c(Cl)cc21 [DCFH]
- second-order rate constant of reaction with hypochlorite [4]: 580 ± 18 M^–1 s^–1

Molecule: CCCCCCCCCCCCCC(=O)O[C@@H]1[C@@H](C)[C@@]2(O)[C@@H](C=C(CO)C[C@]3(O)C(=O)C(C)=C[C@@H]23)[C@@H]2C(C)(C)[C@]12OC(C)=O [PMA, phorbol 12-myristate 13-acetate]
- fluorescence intensity of DCFH-DA probe upon stimulation (intracellular ROS) (RAW264.7 cells): significantly higher fluorescence intensity

Molecule: lipopolysaccharides [LPS]
- fluorescence intensity of DCFH-DA probe upon stimulation (intracellular ROS) (RAW264.7 cells): marginal increase
